Assay results from patent US20180221352A1, “3-(1H-PYRROLO[2,3-C]PYRIDIN-2-YL)-1H-PYRAZOLO[3,4-B]PYRIDINES AND THERAPEUTIC USES THEREOF” (Samumed, LLC, priority 2015, published 2018).

Legend:
Type in all cases: cell-based
[1] = tested on: Wnt activity (Sp5-Luc reporter, SW480 colon carcinoma cells); test: Wnt activity screening assay, Sp5-Luc reporter gene in SW480 cells; details: Homo sapiens; for EC50: Sp5-Luc reporter, SW480 cells, overnight incubation; for inhibition at 10 µM: SW480, read-out: percent inhibition at 10 μM
Summary of the method: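 SW480 cells stably carrying a luciferase reporter driven by an Sp5 promoter with eight TCF/LEF sites, plated overnight in 1% FBS medium at 37 °C. Luminescence read with BrightGlo. Signals normalized to DMSO-treated cells; EC50 from four-parameter variable-slope fit.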

[2] = tested on: SW480 colon cancer cells; test: Cell viability assay (CellTiter-Blue); details: Homo sapiens; for EC50: 96 h, SW480 cell viability, four days; for inhibition at 10 µM: SW480, 96 h, read-out: percent inhibition at 10 μM
Summary of the method: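 Fluorescence from resazurin reduced to resorufin by metabolically active cells was the read-out, taken after ~3 h with CellTiter-Blue.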

[3] = tested on: primary human fibroblasts derived from IPF patients (LL29 cells); test: Inhibition of fibrotic process, αSMA staining in TGF-β1 treated fibroblasts; details: Fibroblast; for EC50: 96 h, LL29 cells, TGF-β1 20 ng/mL, 4 days, % αSMA positive cells; for inhibition at 10 µM: read-out: percent inhibition at 10 μM
Summary of the method: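 LL29 fibroblasts plated in F12 with 1% FBS were stimulated with TGF-β1 alongside compound, with TGF-β1 plus DMSO wells as controls. After 4 days of incubation, SYTOX green was added at 1 μM final for 30 min at room temperature.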

[4] = tested on: primary human mesenchymal stem cells (hMSCs); test: Induction of chondrogenesis in hMSCs (nodule count); details: 6 days; for Emax: relative to TGF-β3 (10 ng/mL) positive control, read-out: Max. Activity as % TGF-β3 activity; for EC50: concentration required to induce 50% levels of chondrogenesis vs TGF-β3, read-out: Conc (nM) of 50% TGF-β3 activity
Text: Representative compounds were screened using primary human mesenchymal stem cells (hMSCs) to determine their ability to induce chondrogenesis (process by which cartilage is developed).
Primary human mesenchymal stem cells (hMSCs) were purchased from Lonza (Walkersville, Md.) and expanded in Mesenchymal Stem Cell Growth Media (Lonza). Cells between passage 3 and 6 were used for the experiments.
To image chondrogenic nodules, the cells were fixed using 4% formaldehyde (Electron Microscopy Sciences), and stained with 2 μg/mL Rhodamine B (Sigma-Aldrich) and 20 μM Nile Red (Sigma-Aldrich) [Johnson K., et. al, A Stem Cell-Based Approach to Cartilage Repair, Science, (2012). […] Number of nodules in each well was normalized to the average of 3 DMSO treated wells on the same plate using Excel (Microsoft Inc.). The normalized averages (fold change over DMSO) of 3 replicate wells for each compound concentration were calculated. Due to solubility limitations of some of the compounds, curve fitting was incomplete leading to inaccurate EC50 determinations.
Using TGF-β3 as a positive control, the concentration of representative compounds required to induce 50% levels of chondrogenesis is reported. In addition, the maximum activity of each compound and the respective dose that each compound reached maximum chondrogenesis activity is reported.

[5] = tested on: IL-6; test: IL-6 inhibition in LPS-stimulated THP-1 cells (HTRF); details: Homo sapiens; for EC50: THP-1 cells, LPS 500 ng/mL, 22 hours, IL6 HTRF; for inhibition at 10 µM: THP-1, read-out: percent inhibition at 10 μM
Summary of the method: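 Serum-reduced (1% FBS, 24 h) THP-1 cells, 5000/well, exposed to compound 2 h at 37 °C, then stimulated with 500 ng/mL LPS for 22 h. Secreted IL-6 measured by HTRF (665/620 ratio), normalised to DMSO; EC50 by four-parameter fit, duplicates.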

Structure (SMILES) | EC50 [1] | EC50 [2] | EC50 [5] | EC50 [4] | inhibition at 10 µM [2] | EC50 [3] | Emax [4] | inhibition at 10 µM [1] | inhibition at 10 µM [3] | inhibition at 10 µM [5]
CN(C)CCOc1cncc(-c2cnc3[nH]nc(-c4cc5c(-c6ccc(F)cc6)cncc5[nH]4)c3c2)c1 [Compound 531, 2-((5-(3-(4-(4-Fluorophenyl)-1H-pyrrolo[2,3-c]pyridin-2-yl)-1H-pyrazolo [3,4-b]pyridin-5-yl)pyridin-3-yl)oxy)-N,N-dimethylethan-1-amine] | > 10000 nM | 3.6 µM | > 10000 nM | – | – | > 10 µM | 28% | 48.5% | 11.4% | 22.9%
Fc1ccccc1-c1cncc2[nH]c(-c3n[nH]c4ncc(-c5cn[nH]c5)cc34)cc12 [Compound 539, 3-(4-(2-Fluorophenyl)-1H-pyrrolo[2,3-c]pyridin-2-yl)-5-(1H-pyrazol-4-yl)-1H-pyrazolo[3,4-b]pyridine] | 416 nM | 0.652 µM | 169 nM | 100 nM | – | 0.099 µM | 51% | – | – | –
Cc1ncc(-c2cnc3[nH]nc(-c4cc5c(-c6ccncc6)cncc5[nH]4)c3c2)n1C [Compound 573, 5-(1,2-Dimethyl-1H-imidazol-5-yl)-3-(4-(pyridin-4-yl)-1H-pyrrolo[2,3-c]pyridin-2-yl)-1H-pyrazolo[3,4-b]pyridine] | > 10000 nM | > 10 µM | > 10000 nM | 10 nM | 19.8% | > 10 µM | 194% | 7.1% | 46.7% | 0%

Now from value to compound, other results behind:

EC50 [1] | EC50 [2] | EC50 [5] | EC50 [4] | Structure (SMILES) | inhibition at 10 µM [2] | EC50 [3] | Emax [4] | inhibition at 10 µM [1] | inhibition at 10 µM [3] | inhibition at 10 µM [5]
1680 nM | > 10 µM | 93 nM | – | CCCC(=O)Nc1cncc(-c2cnc3[nH]nc(-c4cc5c(-c6cc(F)cc(CNS(C)(=O)=O)c6)cncc5[nH]4)c3c2)c1 [Compound 493, N-(5-(3-(4-(3-Fluoro-5-(methylsulfonamidomethyl)phenyl)-1H-pyrrolo[2,3-c]pyridin-2-yl)-1H-pyrazolo[3,4-b]pyridin-5-yl)pyridin-3-yl)butyramide] | 46.1% | 8.9 µM | 37% | – | – | –
2630 nM | > 10 µM | 93 nM | – | CS(=O)(=O)NCc1cc(F)cc(-c2cncc3[nH]c(-c4n[nH]c5ncc(-c6cncc(NC(=O)C7CC7)c6)cc45)cc23)c1 [Compound 496, N-(5-(3-(4-(3-Fluoro-5-(methylsulfonamidomethyl)phenyl)-1H-pyrrolo[2,3-c]pyridin-2-yl)-1H-pyrazolo[3,4-b]pyridin-5-yl)pyridin-3-yl)cyclopropanecarboxamide] | 49.3% | 3.53 µM | 23% | – | – | –
